According to US20040009904A1, “APL immunoreactive peptides, conjugates thereof and methods of treatment for aPL antibody-mediated pathologies” (priority 1995, published 2004):
Numbered stars: 1 amine (or outer) side, 2 acyl side, 3 side chain; on linkers, the order of the positions; unused ones are H or OH. Bridge positions count the residues as written; N and C are the ends. Square brackets hold non-standard residues; d marks the D form. Peptide text beside a SMILES is read from it. Abu(4-yl) = O=C([C@H](CC[*:3])N[*:1])[*:2]; Phg = N[C@H](C(=O)O)c1ccccc1; hCys = N[C@@H](CCS)C(=O)O; Aib = CC(C)(N)C(=O)O

What was measured:
ACA-6501 = test: Competitive binding peptide ACA ELISA, cardiolipin/β2-GPI-coated plates; set-up: species or system human; conditions: for with ACA 6501 150 ug/mL: Optimization of Peptide 3G3, inf = no 50% inhibition; for IC50 Values, ACA-6501: cyclic thioether analogs
Procedure: (§1) A variation of this assay uses microtitration plates coated with human β2-glycoprotein I/cardiolipin (β2-GPI/CL) instead of tetravalent peptide and tests the ability of monomeric peptides to block the binding of aPL antibody to the epitope(s) on β2-GPI/CL. In this assay, IgG-depleted human serum at an optimized concentration is used as a source of β2-GPI. The monomeric peptides at several concentrations are incubated with an optimized concentration of aPL antibody in a manner analogous to the assay which employs tetravalent peptide as a plate substrate. Following the incubation of aPL/peptide in (β2-GPI/CL) plates, antibody binding and the peptide concentration required for 50% inhibition is determined at half-maximal absorbance as in the tetravalent assay.
(§2) Peptide sequences for all five peptides immediately follow the table. All were tested using the competitive binding peptide ACA ELISA using CL/β2-GPI plates as described herein.
(§3) (B) Immulon I® 96-well, flat-bottom, polystyrene microtitration plates (Dynatech Laboratories, Inc., Chantilly, Va.) were coated with 30 μL/well of cardiolipin (CL, 50 μg; Sigma Chemical Co., St. Louis, Mo.) in ethanol. Two control wells received 30 μL ethanol only. After overnight evaporation at 4° C., each well was blocked with 200 μL of 5% (w/v) fish gelatin in PBS for 2 hours at RT.
During this incubation, variable amounts of each of six peptides were mixed with 22 μL ACA-6501 serum diluted with 3% fish gelatin in 1:1 TBS/PBS (final dilution of 1:400) in a final volume of 220 μL using Eppendorf microcentrifuge tubes. Specifically, in tube #1 were mixed 181.3 μL of 3% fish gelatin in TBS-PBS, 16.7 μL of peptide stock solution plus 22 μL of ACA-6501 serum diluted 40 times in 3% fish gelatin/TBS-PBS. Stock solutions ranged from 450-800 μg/mL for peptides #951 (diserine non-cyclized negative control), #952 (a lot of LJP 690), and thioethers CCTE-3G3, CHTE-3G3, HCTE-3G3 and HHTE-3G3. To tube #2 the following were added: 148 μL fish gelatin/TBS-PBS, […] of peptide stock solution, plus 22 μL of 40 times diluted ACA-6501 serum. Tube #3 contained 48 μL fish gelatin/TBS-PBS, […] of peptide stock solution, plus 22 μL of 40 times diluted ACA-6501 serum. The control tube #4 received 396 μL fish gelatin/TBS-PBS and 44 μL of 40 times diluted ACA-6501 serum (no peptide). Each of the tubes incubated for approximately 1 hour at RT.
(§4) The CL/β2-GPI microtitration plate was washed 5 times with TBS and 100 μL aliquots in duplicate from Eppendorf tubes #1, 2, 3, and 4 containing the antibody-peptide (or no peptide mixtures) were added to the wells. A volume of 100 μL from tube #4 was added to the duplicate control wells containing no cardiolipin. The microtitration plate was incubated for 1 hour at RT with agitation at 40 rpm in an orbital shaker (American Scientific, Rotator V), washed 5 times with TBS and then 100 μL of 1:1000 goat anti-human IgG alkaline phosphatase conjugate (Zymed, Cat No. 62-8422) in 0.5% (w/v) BSA-TBS was added. Following incubation for 1 hour at RT, the microtitration plate was again washed 5 times with TBS and the colorimetric enzyme detection developed by adding 100 μL of PMPP solution (7.8 g phenolphthalein monophosphate plus 69.5 g of 2-amino-2-methyl-1-propanol in 100 mL water stock solution diluted 1:26 with water). After 21 minutes, the reaction was stopped by adding 50 μL of 0.2 M Na2HPO4 (Mallinckrodt) to each well. Absorbance at 550 nm was read in a microplate reader (Bio-Tek Instruments, Model EL 311). The amount of peptide that inhibited ACA-6501 binding by 50%, the IC50, was calculated from the graph at the intersection of half-maximal absorbance with amount of peptide added.

ACA-6701 = test: as above; set-up: species or system human; conditions: cyclic thioether analogs
Procedure: as §1, §2, §3, §4

ACA = test: Structure Activity Relationship of the Crossreactive ACA Epitope (relative activity); format: binding, human; conditions: LJP 688 = 100
Excerpt: Peptide 6641/3G3 (LJP 688) was subjected to a number of analyses. The analyses included truncation at both the N-terminus and the C-terminus, disulfide substitution, substitution of alanine and glycine for amino acids in positions 2 through 8, substitution of branched aliphatic amino acids in positions 2, 4, 5 and 8, substitution of amino acids affecting conformation of the peptide, including substitution of α-methyl amino acids, substitution of basic amino acids in position 7, substitution of D-amino acids in positions 2 through 9, and the substitution of N-α-methyl amino acids in positions 1 through 9.

With `CC(C)C[C@@H]1NC(=O)[C@H](CCCCN)NC(=O)CNC(=O)[C@H](CC(C)C)NC(=O)[C@H](C(C)C)NC(=O)CNC(=O)[C@H](CC(C)C)NC(=O)[C@@H](N)CCSCC[C@@H](C(=O)O)NC1=O` [LJP 703] (H-[hCys]LGVLGKL[Abu(4-yl)]-OH; thioether 1-9; N-terminus and C-terminus assumed) the “with ACA 6501 150 ug/mL” value (ACA-6501) was 80 µg/mL, the “IC50 Values, ACA-6501” value (ACA-6501) was 8.0 μg/0.1 mL and the “IC50 Values, ACA-6701” value (ACA-6701) was 3.6 μg/0.1 mL.
`CC(C)C[C@@H]1NC(=O)[C@H](CCCCN)NC(=O)CNC(=O)[C@H](CC(C)C)NC(=O)[C@H](C(C)C)NC(=O)CNC(=O)[C@H](CC(C)C)NC(=O)[C@@H](N)CSSC[C@@H](C(=O)O)NC1=O` [LJP 690, CLGVLGKLC] (H-CLGVLGKLC-OH; disulfide 1-9) was tested, and the “IC50 Values, ACA-6501” value (ACA-6501) was 10.0 μg/0.1 mL, the “IC50 Values, ACA-6701” value (ACA-6701) was 4.0 μg/0.1 mL and the “Relative Activity” value (ACA) was 3.5.
In the case of CLGVLPGKLC, the “Relative Activity” value (ACA) was 1.4.
With `CC(C)C[C@@H]1NC(=O)[C@H](CCCCN)NC(=O)CNC(=O)[C@H](CC(C)C)NC(=O)[C@H](C(C)C)NC(=O)CNC(=O)[C@H](CC(C)C)NC(=O)[C@@H](N)CSCC[C@@H](C(=O)O)NC1=O` [LJP 702] (H-CLGVLGKL[Abu(4-yl)]-OH; thioether 1-9; N-terminus and C-terminus assumed) the “with ACA 6501 150 ug/mL” value (ACA-6501) was 92 µg/mL, the “IC50 Values, ACA-6501” value (ACA-6501) was 9.2 μg/0.1 mL and the “IC50 Values, ACA-6701” value (ACA-6701) was 3.2 μg/0.1 mL.
`CC(C)C[C@@H]1NC(=O)[C@H](CCCCN)NC(=O)CNC(=O)[C@H](CC(C)C)NC(=O)[C@H](C(C)C)NC(=O)CNC(=O)[C@H](CC(C)C)NC(=O)[C@@H](N)CSC[C@@H](C(=O)O)NC1=O` [LJP 698] was tested, and the “IC50 Values, ACA-6501” value (ACA-6501) was 11.0 μg/0.1 mL and the “IC50 Values, ACA-6701” value (ACA-6701) was 5.0 μg/0.1 mL.
With CLGVAGKLC [C L G V A G K L C] the “with ACA 6501 150 ug/mL” value (ACA-6501) was “inf” and the “Relative Activity” value (ACA) was “∞”.
`CC(C)C[C@@H]1NC(=O)[C@H](CCCCN)NC(=O)[C@H](C)NC(=O)[C@H](CC(C)C)NC(=O)[C@H](C(C)C)NC(=O)CNC(=O)[C@H](CC(C)C)NC(=O)[C@@H](N)CSSC[C@@H](C(=O)O)NC1=O` [peptide 925, CLGVLAKLC] (H-CLGVLAKLC-OH; disulfide 1-9) was tested, and the “with ACA 6501 150 ug/mL” value (ACA-6501) was 40 µg/mL and the “Relative Activity” value (ACA) was 1.8.
For `CC(C)C[C@@H]1NC(=O)[C@H](CCCCN)NC(=O)CNC(=O)[C@H](CC(C)C)NC(=O)[C@H](C(C)C)NC(=O)CNC(=O)[C@H](CC(C)C)NC(=O)[C@@H](N)CCSC[C@@H](C(=O)O)NC1=O` [LJP 699] (H-[Abu(4-yl)]LGVLGKLC-OH; thioether 1-9), the “with ACA 6501 150 ug/mL” value (ACA-6501) was 46 µg/mL, the “IC50 Values, ACA-6501” value (ACA-6501) was 4.6 μg/0.1 mL and the “IC50 Values, ACA-6701” value (ACA-6701) was 3.0 μg/0.1 mL. For the same compound, the “Relative Activity” value (ACA) was 1.6.
In the case of “SLGVLGKLS [diserine non-cyclized negative control, reference compound]”, the “Relative Activity” value (ACA) was “∞”.
With `CC(C)C[C@@H]1NC(=O)[C@H](CCCCN)NC(=O)CNC(=O)[C@@H](CC(C)C)NC(=O)[C@@H](C(C)C)NC(=O)CNC(=O)[C@H](CC(C)C)NC(=O)[C@@H](N)CSSC[C@@H](C(=O)O)NC1=O` [C L G dV dL G K L C] (H-CLG[dV][dL]GKLC-OH; disulfide 1-9) the “with ACA 6501 150 ug/mL” value (ACA-6501) was 50 µg/mL and the “Relative Activity” value (ACA) was 5.9.
`CC(C)C[C@@H]1NC(=O)[C@@H](NC(=O)[C@@H]2CCCN2C(=O)CNC(=O)[C@H](C)N)CSSC[C@@H](C(=O)NCC(=O)O)NC(=O)[C@H](CC(C)C)NC(=O)[C@H](CCCCN)NC(=O)CNC(=O)[C@H](CC(C)C)NC(=O)[C@H](C(C)C)NC(=O)CNC1=O` [A G P C L G V L G K L C G] (H-AGPCLGVLGKLCG-OH; disulfide 4-12) was tested, and the “with ACA 6501 150 ug/mL” value (ACA-6501) was 450 µg/mL.
With `CC(C)C[C@@H]1NC(=O)[C@H](c2ccccc2)NC(=O)CNC(=O)[C@H](CC(C)C)NC(=O)[C@H](C(C)C)NC(=O)CNC(=O)[C@H](CC(C)C)NC(=O)[C@@H](N)CSSC[C@@H](C(=O)O)NC1=O` [C L G V L Gp G L C] (H-CLGVLG[Phg]LC-OH; disulfide 1-9) the “with ACA 6501 150 ug/mL” value (ACA-6501) was 230 µg/mL.
In the case of `CC(C)C[C@@H]1NC(=O)[C@H](C(C)C)NC(=O)CNC(=O)[C@H](CC(C)C)NC(=O)[C@@H](N)CSSC[C@@H](C(=O)O)NC(=O)[C@H](CC(C)C)NC(=O)C(C)(C)NC(=O)CNC1=O` [C L G V L G aiB L C] (H-CLGVLG[Aib]LC-OH; disulfide 1-9), the “with ACA 6501 150 ug/mL” value (ACA-6501) was 460 µg/mL.
In the case of `CC(C)C[C@@H]1NC(=O)[C@H](CCCCN)NC(=O)[C@@H]2CCCN2C(=O)[C@H](CC(C)C)NC(=O)[C@H](C(C)C)NC(=O)CNC(=O)[C@H](CC(C)C)NC(=O)[C@@H](N)CSSC[C@@H](C(=O)O)NC1=O` [C L G V L P K L C] (H-CLGVLPKLC-OH; disulfide 1-9), the “with ACA 6501 150 ug/mL” value (ACA-6501) was 350 µg/mL.
In the case of CLGVLGALC [C L G V L G A L C], the “with ACA 6501 150 ug/mL” value (ACA-6501) was “inf” and the “Relative Activity” value (ACA) was “∞”.
In the case of `CC(C)C[C@@H]1NC(=O)[C@H](CCCCN)NC(=O)CNC(=O)[C@H](CC(C)C)NC(=O)[C@H](C(C)C)NC(=O)CNC(=O)[C@H](c2ccccc2)NC(=O)[C@@H](N)CSSC[C@@H](C(=O)O)NC1=O` [C pG G V L G K L C] (H-C[Phg]GVLGKLC-OH; disulfide 1-9), the “with ACA 6501 150 ug/mL” value (ACA-6501) was 130 µg/mL.
With `CC(C)C[C@@H]1NC(=O)[C@H](CCCCN)NC(=O)CNC(=O)[C@H](CC(C)C)NC(=O)[C@H](C(C)C)NC(=O)[C@H](C)NC(=O)[C@H](CC(C)C)NC(=O)[C@@H](N)CSSC[C@@H](C(=O)O)NC1=O` [C L A V L G K L C] (H-CLAVLGKLC-OH; disulfide 1-9) the “with ACA 6501 150 ug/mL” value (ACA-6501) was 170 µg/mL.
`CC(C)C[C@@H]1NC(=O)[C@H](C(C)C)NC(=O)CNC(=O)[C@H](CC(C)C)NC(=O)[C@@H](N)CSSC[C@@H](C(=O)O)NC(=O)[C@H](CC(C)C)NC(=O)[C@@H]2CCCN2C(=O)CNC1=O` [C L G V L G P L C] (H-CLGVLGPLC-OH; disulfide 1-9) was tested, and the “with ACA 6501 150 ug/mL” value (ACA-6501) was 160 µg/mL.
